Measured values: US11033527B2, “Non-hormonal treatment of the genitourinary syndrome of menopause” (IMMUGEN PHARMA LLC, priority 2018, dated 2021)
Where “and” joins values, the source holds several entries; their conditions need not be identical. Equal entries are not always repeated.

Experiments:
vaginal tissue construct = experiment: microarray analysis of differential gene expression (Affymetrix Human Gene 1.0 ST arrays), tissues treated for seven days via culture medium; type: cell-based
Text: The data from the Affymetrix Human Gene 1.0 ST arrays were normalized using the Robust Multiarray Average (RMA) algorithm and a Chip Definition File (CDF) that maps the probes on the array to unique Entrez Gene identifiers. The result is a matrix in which each column corresponds to a sample. The expression values are log 2-transformed by default.
By using a fold change >1.5, an analysis of differentially expressed genes was done to identify those genes which were involved in the cornified envelope, keratinocyte differentiation, cell differentiation, epidermis development, epithelial cell differentiation, junctional proteins and signaling, immune response and innate immune response.

[1] = biological target: endocannabinoid receptor type 2 (CB2) (Homo sapiens, UniProt P34972); conditions: cited from earlier work
[2] = down-regulated by this fold, given without sign

Chain of endocannabinoid receptor type 2 (CB2) (P34972 whole entry, species assumed): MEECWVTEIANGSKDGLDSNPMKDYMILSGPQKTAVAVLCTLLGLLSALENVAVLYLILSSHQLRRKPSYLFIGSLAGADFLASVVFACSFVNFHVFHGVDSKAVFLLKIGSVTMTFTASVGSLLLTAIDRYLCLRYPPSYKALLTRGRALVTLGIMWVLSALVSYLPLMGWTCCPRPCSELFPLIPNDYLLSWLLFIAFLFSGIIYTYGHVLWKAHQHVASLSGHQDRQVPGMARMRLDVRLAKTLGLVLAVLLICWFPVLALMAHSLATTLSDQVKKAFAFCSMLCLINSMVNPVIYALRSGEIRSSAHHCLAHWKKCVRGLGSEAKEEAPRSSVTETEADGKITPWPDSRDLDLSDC

## CCCC(C)(C)c1ccc2c(c1)OC(C)(C)[C@@H]1CC=C(C)C[C@@H]21 [JWH-133]
Vaginal tissue construct
  SPRR2D Fold Change: 2.839 fold
  WFDC12 Fold Change: 5.534 fold
Vaginal tissue construct; [2]
  CFB down-regulation: 2.167 fold
  CFH down-regulation: 1.681 fold
Vaginal tissue construct; gene Anterior gradient homolog 2 (Xenopus laevis)
  AGR2 Fold Change: −2.5 fold
Vaginal tissue construct; gene C-X-C motif chemokine ligand 8
  CXCL8 Expr Fold Change: −2.155 fold
Vaginal tissue construct; gene C-X-C motif chemokine ligand 17
  CXCL17 Expr Fold Change: −1.881 fold
Vaginal tissue construct; gene C-X-C motif chemokine receptor 2
  CXCR2 Expr Fold Change: 2.121 fold
Vaginal tissue construct; gene CD14 molecule
  CD14 Expr Fold Change: −2.286 fold
Vaginal tissue construct; gene CD74 molecule
  CD74 Expr Fold Change: −1.676 fold
Vaginal tissue construct; gene CD151 molecule (Raph blood group)
  CD151 Expr Fold Change: −1.653 fold
Vaginal tissue construct; gene CD244 molecule
  CD244 Expr Fold Change: 2.489 fold
Vaginal tissue construct; gene Corneodesmosin
  CDSN Fold Change: 6.888 fold
Vaginal tissue construct; gene C−C motif chemokine ligand 28
  CCL28 Expr Fold Change: −2.39 fold
Vaginal tissue construct; gene FYN binding protein 1
  FYB1 Expr Fold Change: −2.398 fold
Vaginal tissue construct; gene Interferon Epsilon
  IFNE Fold Change: 4.439 fold
Vaginal tissue construct; gene Interleukin 19
  IL19 Fold Change: −2.2 fold
Vaginal tissue construct; gene NLR family pyrin domain containing 10
  NLRP10 Fold Change: 10.11 fold
Vaginal tissue construct; gene RNAse family
  RNAse7 Fold Change: 6.145 fold
Vaginal tissue construct; gene T cell lymphoma invasion and metastasis 1
  TIAM1 Expr Fold Change: 2.018 fold
Vaginal tissue construct; gene TNF alpha induced protein 8
  TNFAIP8 Expr Fold Change: −1.724 fold
Vaginal tissue construct; gene TNF receptor superfamily member 10c
  TNFRSF10C Expr Fold Change: −2.114 fold
Vaginal tissue construct; gene TNF receptor superfamily member 11b
  TNFRSF11B Expr Fold Change: −2.006 fold
Vaginal tissue construct; gene Tetraspanin 1
  TSPAN1 Fold Change: −1.9 fold
Vaginal tissue construct; gene Transglutaminase 1
  TGM1 Fold Change: 1.809 fold
Vaginal tissue construct; gene Transglutaminase 3
  TGM3 Fold Change: 23.784 fold and 24 fold
Vaginal tissue construct; gene Transglutaminase 5
  TGM5 Fold Change: 2.346 fold
Vaginal tissue construct; gene Tripartite motif-containing 31
  TRIM31 Fold Change: −4.5 fold
Vaginal tissue construct; gene V-set domain containing T cell activation inhibitor 1
  VTCN1 Expr Fold Change: −2.694 fold
Vaginal tissue construct; gene WAP four-disulfide core domain 2
  WFDC2 Fold Change: −2.6 fold
Vaginal tissue construct; gene WAP four-disulfide core domain 5
  WFDC5 Fold Change: 2.807 fold
Vaginal tissue construct; gene arachidonate 12-lipoxygenase, 12R type
  ALOX12B Fold Change: 6.023 fold
Vaginal tissue construct; gene arachidonate 12-lipoygenase
  ALOX12 Fold Change: 1.8 fold
Vaginal tissue construct; gene arachidonate lipoxygenase 3
  ALOXE3 Fold Change: 2.881 fold
Vaginal tissue construct; gene arginosuccinate synthetase 1
  ASS1 Fold Change: −2.4 fold
Vaginal tissue construct; gene claudin 17
  CLDN17 Fold Change: 8.7 fold
Vaginal tissue construct; gene coiled-coil domain containing 59
  CCDC59 Expr Fold Change: −1.956 fold
Vaginal tissue construct; gene colony stimulating factor 2 receptor beta common subunit
  CSF2RB Expr Fold Change: 2.595 fold
Vaginal tissue construct; gene complement factor H
  CFH Expr Fold Change: −1.681 fold
Vaginal tissue construct; gene cornifelin
  CNFN Fold Change: 1.706 fold
Vaginal tissue construct; gene cysteine-rich C-terminal 1
  CRCT1 Fold Change: 2.3 fold
Vaginal tissue construct; gene dermokine
  DMKN Fold Change: 2.043 fold
Vaginal tissue construct; gene descmocollin 3
  DCS3 Fold Change: 1.5 fold
Vaginal tissue construct; gene desmocollin 1
  DSC1 Fold Change: 6.69 fold
Vaginal tissue construct; gene desmocollin 2
  DSC2 Fold Change: 1.6 fold
Vaginal tissue construct; gene desmoglein 1
  DSG1 Fold Change: 7.572 fold and 7.2 fold
Vaginal tissue construct; gene filaggrin
  FLG Fold Change: 3.151 fold
Vaginal tissue construct; gene filaggrin family member 2
  FLG2 Fold Change: 6.801 fold
Vaginal tissue construct; gene glycogen synthase 2 (liver)
  GYS2 Fold Change: 3.1 fold
Vaginal tissue construct; gene human keratinocyte proline rich protein
  KPRP Fold Change: 17.392 fold and 20.8 fold
Vaginal tissue construct; gene interferon induced protein with tetratricopeptide repeats 5
  IFIT5 Expr Fold Change: −1.97 fold
Vaginal tissue construct; gene interferon induced with helicase C domain 1
  IFIH1 Expr Fold Change: −2.099 fold
Vaginal tissue construct; gene interferon regulatory factor 1
  IRF1 Expr Fold Change: −3.083 fold
Vaginal tissue construct; gene interferon regulatory factor 9
  IRF9 Expr Fold Change: −1.62 fold
Vaginal tissue construct; gene interleukin 1 receptor like 2
  IL1RL2 Expr Fold Change: 2.54 fold
Vaginal tissue construct; gene interleukin 7 receptor
  IL7R Expr Fold Change: −2.062 fold
Vaginal tissue construct; gene interleukin 18 binding protein
  IL18BP Expr Fold Change: 1.523 fold
Vaginal tissue construct; gene interleukin 23 subunit alpha
  IL23A Expr Fold Change: 2.346 fold
Vaginal tissue construct; gene interleukin 33
  IL33 Expr Fold Change: −3.314 fold
Vaginal tissue construct; gene interleukin 36 alpha
  IL36A Expr Fold Change: 4.253 fold
Vaginal tissue construct; gene interleukin 36 receptor antagonist
  IL36RN Expr Fold Change: 4.029 fold
Vaginal tissue construct; gene kallikrein related peptidase 6
  KLK6 Fold Change: 4.063 fold
Vaginal tissue construct; gene kallikrein related peptidase 8
  KLK8 Fold Change: 1.504 fold
Vaginal tissue construct; gene kallikrein related peptidase 10
  KLK10 Fold Change: 2.214 fold
Vaginal tissue construct; gene kallikrein related peptidase 12
  KLK12 Fold Change: 3.882 fold
Vaginal tissue construct; gene kallikrein related peptidase 13
  KLK13 Fold Change: 3.278 fold
Vaginal tissue construct; gene keratin 1
  KRT1 Fold Change: 7.122 fold and 8.7 fold
Vaginal tissue construct; gene keratin 2
  KRT2 Fold Change: 1.764 fold
Vaginal tissue construct; gene keratin 20
  KRT20 Fold Change: −2.992 fold
Vaginal tissue construct; gene keratin 23
  KRT23 Fold Change: 1.631 fold
Vaginal tissue construct; gene keratin 24
  KRT24 Fold Change: 1.699 fold
Vaginal tissue construct; gene keratinocyte differentiation associated protein
  KRTDAP Fold Change: 9.891 fold and 10.1 fold
Vaginal tissue construct; gene late cornified envelope 1A
  LCE1A Fold Change: 1.526 fold
Vaginal tissue construct; gene late cornified envelope 1C
  LCE1C Fold Change: 2.292 fold
Vaginal tissue construct; gene late cornified envelope 1F
  LCE1F Fold Change: 1.576 fold
Vaginal tissue construct; gene late cornified envelope 2A
  LCE2A Fold Change: 4.097 fold
Vaginal tissue construct; gene late cornified envelope 2B
  LCE2B Fold Change: 7.398 fold
Vaginal tissue construct; gene late cornified envelope 2D
  LCE2C/LCE2D Fold Change: 10.393 fold
Vaginal tissue construct; gene late cornified envelope 3D
  LCE3D Fold Change: 12.6 fold
Vaginal tissue construct; gene late cornified envelope 3E
  LCE3E Fold Change: 13.5 fold
Vaginal tissue construct; gene late cornified envelope 5A
  LCE5A Fold Change: 1.571 fold
Vaginal tissue construct; gene lipase family member M
  LIPM Fold Change: 6.813 fold
Vaginal tissue construct; gene lipase family member N
  LIPN Fold Change: 4.766 fold
Vaginal tissue construct; gene lipin 1
  LIPN1 Fold Change: 3.23 fold
Vaginal tissue construct; gene loricrin
  LOR Fold Change: 5.085 fold
Vaginal tissue construct; gene lymphocyte antigen 6 family member G6C
  LY6G6C Expr Fold Change: 5.531 fold
Vaginal tissue construct; gene major histocompatibility complex, class C
  HLA-C Expr Fold Change: −1.5 fold
Vaginal tissue construct; gene major histocompatibility complex, class I, B
  HLA-B Expr Fold Change: −1.677 fold
Vaginal tissue construct; gene major histocompatibility complex, class II, DR alpha
  HLA-DRA Expr Fold Change: −1.875 fold
Vaginal tissue construct; gene major histocompatibility complex, class II, DR beta 6 (pseudogene)
  HLA-DRB6 Expr Fold Change: −1.5 fold
Vaginal tissue construct; gene malic enzyme 1, NADP(+)-dependent cytosolic
  ME1 Fold Change: 2.4 fold
Vaginal tissue construct; gene mucin like 1
  MUCL1 Fold Change: 1.4 fold
Vaginal tissue construct; gene natural killer cell cytotoxicity receptor 3 ligand 1
  NCR3LG1 Expr Fold Change: 2.076 fold
Vaginal tissue construct; gene nuclear factor of activated T cells 5
  NFAT5 Expr Fold Change: 1.924 fold
Vaginal tissue construct; gene olfactomedin 4
  OLFM4 Expr Fold Change: −3.505 fold
Vaginal tissue construct; gene pancreatic lipase-related protein 3
  PNLIPRP3 Fold Change: 1.4 fold
Vaginal tissue construct; gene phospholipase A2 group IIF
  PLA2G2F Fold Change: 1.564 fold
Vaginal tissue construct; gene phospholipase A2 group III
  PLA2G3 Fold Change: 1.953 fold
Vaginal tissue construct; gene phospholipase A2 group IVD
  PLA2G4D Fold Change: 3.604 fold
Vaginal tissue construct; gene phospholipase A2 group IVE
  PLA2G4E Fold Change: 2.225 fold
Vaginal tissue construct; gene phospholipase A2 group X
  PLA2G10 Fold Change: −2.819 fold
Vaginal tissue construct; gene placenta-specific 8
  PLAC8 Fold Change: −2.2 fold
Vaginal tissue construct; gene polymeric immunoglobulin receptor
  PIGR Fold Change: −1.8 fold
Vaginal tissue construct; gene programmed cell death 1 ligand 2
  PDCD1LG2 Expr Fold Change: −1.879 fold
Vaginal tissue construct; gene ribosomal protein S15a
  RPS15A Expr Fold Change: −1.999 fold
Vaginal tissue construct; gene serpin family B member 12
  SERPINB12 Fold Change: 4.409 fold and 4.3 fold
Vaginal tissue construct; gene signal transducer and activator of transcription 4
  STAT4 Expr Fold Change: −2.315 fold
Vaginal tissue construct; gene small proline rich protein 2G
  SPRR2G Fold Change: 7.539 fold
Vaginal tissue construct; gene small proline rich protein 4
  SPRR4 Fold Change: 2.263 fold
Vaginal tissue construct; gene suprabasin
  SBSN Fold Change: 3.488 fold and 3.4 fold
Vaginal tissue construct; gene toll like receptor 3
  TLR3 Expr Fold Change: −2.566 fold
Vaginal tissue construct; gene transient receptor potential cation channel subfamily V member 3
  TRPV3 Fold Change: 2.32 fold and 2.382 fold
Vaginal tissue construct; gene ubiquitin like modifier activating enzyme 7
  UBA7 Expr Fold Change: −1.651 fold
Vaginal tissue construct; gene vascular endothelial growth factor A
  VEGFA Fold Change: 1.2 fold
Vaginal tissue construct; microRNA 23a
  mir-23 Expr Fold Change: 2.983 fold
Vaginal tissue construct; microRNA 224
  mir-224 Expr Fold Change: 4.867 fold
[1]
  agonist type by receptor internalization: full agonist
